This is an account of results in patent US20120214847A1, “2-[1-PHENYL-5-HYDROXY-4a-SUBSTITUTED-HEXAHYDROCYCLOPENTA[F]INDAZOL-5-YL]ETHYL PHENYL DERIVATIVES AS GLUCOCORTICOID RECEPTOR LIGANDS” (Merck Sharp & Dohme Corp., priority 2009, published 2012).

For the test, the target named is T1, glucocorticoid receptor (Homo sapiens, UniProt P04150).
T1 construct: endogenous in cells; host or cells: HeLa (ATCC) cell lysate supernatant
T1 sequence (P04150 1-777): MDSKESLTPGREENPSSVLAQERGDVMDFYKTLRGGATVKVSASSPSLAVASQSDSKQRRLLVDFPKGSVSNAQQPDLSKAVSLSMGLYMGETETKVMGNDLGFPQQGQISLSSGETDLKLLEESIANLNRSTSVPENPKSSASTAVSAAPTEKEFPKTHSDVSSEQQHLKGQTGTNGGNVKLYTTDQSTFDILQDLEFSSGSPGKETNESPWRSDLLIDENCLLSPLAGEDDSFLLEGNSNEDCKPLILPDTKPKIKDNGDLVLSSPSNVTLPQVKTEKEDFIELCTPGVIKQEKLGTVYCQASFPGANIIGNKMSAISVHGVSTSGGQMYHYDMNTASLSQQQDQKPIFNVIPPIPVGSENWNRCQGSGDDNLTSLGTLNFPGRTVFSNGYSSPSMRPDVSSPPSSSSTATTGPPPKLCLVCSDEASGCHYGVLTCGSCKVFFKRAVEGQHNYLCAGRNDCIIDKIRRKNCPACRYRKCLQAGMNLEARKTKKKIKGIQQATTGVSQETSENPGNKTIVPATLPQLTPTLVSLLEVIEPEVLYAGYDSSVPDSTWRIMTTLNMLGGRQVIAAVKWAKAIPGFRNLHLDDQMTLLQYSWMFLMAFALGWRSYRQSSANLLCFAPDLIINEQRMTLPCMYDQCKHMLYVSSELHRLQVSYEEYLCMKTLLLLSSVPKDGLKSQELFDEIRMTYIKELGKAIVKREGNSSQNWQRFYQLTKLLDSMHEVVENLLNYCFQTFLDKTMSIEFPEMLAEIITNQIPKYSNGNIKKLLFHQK
Kind of test: Ligand binding assay (GRBind), 3H-dexamethasone displacement in HeLa cell lysate. The following applies: 3H-DEX tracer. On the procedure: Binding Buffer: TEGM (10 mM Tris-HCl, 1 mM EDTA, 10% glycerol, 1 mM betamecaptoethanol, 10 mM Sodium Molybdate, pH 7.2)
50% HAP Slurry: Calbiochem Hydroxylapatite, Fast Flow, in 10 mM Tris, pH 8.0 and 1 mM EDTA.
Wash Buffer: 40 mM Tris, pH7.5, 100 mM KCl, 1 mM EDTA and 1 mM EGTA. 95% EtOH Dexmethasone-methyl-3H, (DEXA*); (Amersham cat#TRK645) Dexamethasone(DEX) (Sigma, cat#01756):
Hydroxylapatite Fast Flow; Calbiochem Cat#391947
25 Molybdate=Molybdic Acid (Sigma, M1651)
5 Cells (Hall R. E., et al., European Journal of Cancer, 30A: 484-490 (1994)) HeLa (ATCC) cultured in RPMI 1640 (Gibed 11835-055) containing 20 mM Hepes, 4 mM L-glu, 10 ug/ml of human insulin (Sigma, 1-0259), 10% FBS and 20 uglml of Gentamicin (Gibco#15710072) are rinsed twice in PBS. Phenol red-free Trypsin-EDTA is diluted in the same PBS 1:10. The cell layers are rinsed with IX Trypsin, extra Trypsin is poured out, and the cell layers are incubated at 37° C. for 2 min. The flask is tapped and checked for signs of cell detachment. Once the cells begin to slide off the flask, the complete media is added. The cells are counted at this point, then diluted to the appropriate concentration and split into flasks or dishes for further culturing (Usually 1:3 to 1:6 dilution).
Preparation of HeLa Cell Lysate
When the cells are 70 to 85% confluent, they are detached as described above, and collected by centrifuging at 1000 g for 10 min at 4° C. The cell pellet is washed twice with TEGM (10 mM Tris-HCl, 1 mM EDTA, 10% glycerol, 1 mM beta-mercaptoethanol, 10 mM Sodium Molybdate, pH 7.2). After the final wash, the cells are resuspended in TEGM at a concentration of 10^7 cells/mL. The cell suspension is snap frozen in liquid nitrogen or ethanol/dry ice bath and transferred to −80° C. freezer on dry ice. Before setting up the binding assay, the frozen samples are left on ice-water to just thaw. Then the samples are centrifuged at 12,500 g to 20,000 g for 30 min at 4° C. The supernatant is used to set-up assay right away. If using 50 μL of supernatant, the test compound can be prepared in 50 μL of the TEGM buffer.
Procedure for Multiple Compound Screening
1×TEGM buffer is prepared, and the isotope-containing assay mixture is prepared in the following order: EtOH (2% final concentration in reaction), 3H-DEX (Amersham Biosciences) and 1×TEGM. [e.g. For 100 samples, 200 JlL (100×2) of EtOH+4.25 JlL of 1:10 ^3H-Dex stock+2300 μL (100×23) 1×TEGM]. The compound is serially diluted, e.g., if starting final conc. is 1 μM, and the compound is in 25 μL of solution, for duplicate samples, 75 μL of 4×1 μM solution is made and 3 μL of 100). 1M is added to 72 μL of buffer, and 1:5 serial dilution.
25 μL of ^3H-DEX (6 nM) trace and 25 μL, compound solution are first mixed together, followed by addition of 50 μL receptor solution. The reaction is gently mixed, spun briefly at about 200 rpm and incubated at 4° C. overnight. 100 μL of 50% HAP slurry is prepared and added to the incubated reaction which is then vortexed and incubated on ice for 5 to 10 min. The reaction mixture is vortexed twice more to resuspend HAP while incubating reaction. The samples in 96-well format are then washed in wash buffer using the FilterMate™ Universal Harvester plate washer (Packard). The washing process transfers HAP pellet containing ligand-bound expressed receptor to Unifilter-96 GFIB filter plate (Packard). The HAP pellet on the filter plate is incubated with […] of MICROSCINT (Packard) scintillant for 30 min before being counted on the TopCount microscintillation counter (Packard). IC50s are calculated using DEX as a reference.

In the case of `NC(=O)c1ccccc1CC[C@]1(O)CCC2=Cc3c(cnn3-c3ccccc3)C[C@@]21C1CC1` [Example 29, 2-{2-[(4aR,5R)-4a-Cyclopropyl-5-hydroxy-1-phenyl-1,4,4a,5,6,7-hexahydrocyclopenta[f]indazol-5-yl]ethyl}benzamide], the Ki was 2.29 nM. `CC[C@]12Cc3cnn(-c4ccc(F)cc4)c3C=C1CC[C@@]2(O)CCc1ccccc1CCC(N)=O` [Example 22, 3-(2-{2-[(4aS,5R)-4a-Ethyl-1-(4-fluorophenyl)-5-hydroxy-1,4,4a,5,6,7-hexahydrocyclopenta[f]indazol-5-yl]ethyl}phenyl)propanamide] gave an inhibition constant (Ki) of 1.48 nM.

`CC[C@]12Cc3cnn(-c4ccccc4)c3C=C1CC[C@@]2(O)CC(O)c1cc(C#N)ccn1` (stereo partly drawn) [Example 75, 2-{2-[(4aS,5R)-4a-Ethyl-5-hydroxy-1-phenyl-1,4,4a,5,6,7-hexahydrocyclopenta[f]indazol-5-yl]-1-hydroxyethyl}pyridine-4-carbonitrile]: the affinity, expressed as Ki, was 2.97 nM. Molecule `CC[C@]12Cc3cnn(-c4ccc(F)cc4)c3C=C1CC[C@@]2(O)CCc1ccccn1` [Example 16, (4aS,5R)-4a-Ethyl-1-(4-fluorophenyl)-5-[2-(pyridin-2-yl)ethyl]-1,4,4a,5,6,7-hexahydrocyclopenta[f]indazol-5-ol] had a Ki of 2.22 nM.

Regarding `CC[C@]12Cc3cnn(-c4ccccc4)c3C=C1CC[C@@]2(O)CC(O)c1ccccn1` (single isomer, unassigned) [Example 67b], the affinity, expressed as Ki, was 5.46 nM.

In the case of `CC[C@]12Cc3cnn(-c4ccc(F)cc4)c3C=C1CC[C@@]2(O)CCc1nccc(OC)c1C(F)C(N)=O` (stereo partly drawn) [Example 65, 2-(2-{2-[(4aS,5R)-4a-Ethyl-1-(4-fluorophenyl)-5-hydroxy-1,4,4a,5,6,7-hexahydrocyclopenta[f]indazol-5-yl]ethyl}-4-methoxypyridin-3-yl)-2-fluoroacetamide], the Ki worked out at 9.2 nM. The molecule `O=C(NCCO)c1ccccc1CC[C@]1(O)CCC2=Cc3c(cnn3-c3ccc(F)cc3)C[C@@]21C1CC1` [Example 50, 2-{2-[(4aR,5R)-4a-Cyclopropyl-1-(4-fluorophenyl)-5-hydroxy-1,4,4a,5,6,7-hexahydrocyclopenta[f]indazol-5-yl]ethyl}-N-(2-hydroxyethyl)benzamide] returned a Ki of 2.09 nM.

As for `CC[C@]12Cc3cnn(-c4ccc(F)cc4)c3C=C1CC[C@@]2(O)CC(O)c1cc(C#N)ccn1` (stereo partly drawn) [Example 72, 2-{2-[(4aS,5R)-4a-Ethyl-1-(4-fluorophenyl)-5-hydroxy-1,4,4a,5,6,7-hexahydrocyclopenta[f]indazol-5-yl]-1-hydroxyethyl}pyridine-4-carbonitrile], the inhibition constant Ki stood at 6.25 nM. As for `CC(C)(CO)NC(=O)c1ccccc1CC[C@]1(O)CCC2=Cc3c(cnn3-c3ccc(F)cc3)C[C@@]21C1CC1` [Example 45, 2-{2-[(4aR,5R)-4a-Cyclopropyl-1-(4-fluorophenyl)-5-hydroxy-1,4,4a,5,6,7-hexahydrocyclopenta[f]indazol-5-yl]ethyl}-N-(1-hydroxy-2-methylpropan-2-yl)benzamide], the Ki came out at 2.09 nM. The result for `CC[C@]12Cc3cnn(-c4ccc(F)cc4)c3C=C1CC[C@@]2(O)CC(O)c1ccc(F)cn1` (single isomer, unassigned) [Example 69a] reads 4.41 nM. As for `N#Cc1cccnc1CC[C@]1(O)CCC2=Cc3c(cnn3-c3ccc(F)cc3)C[C@@]21C1CC1` [Example 31, 2-{2-[(4aR,5R)-4a-Cyclopropyl-1-(4-fluorophenyl)-5-hydroxy-1,4,4a,5,6,7-hexahydrocyclopenta[f]indazol-5-yl]ethyl}pyridine-3-carbonitrile], the affinity corresponds to a Ki of 1.58 nM. This Ki lies about 2.8-fold lower than the previous one. Molecule `COc1cccc(CC[C@]2(O)CCC3=Cc4c(cnn4-c4ccc(F)cc4)C[C@@]32C2CC2)c1C(N)=O` [Example 38, 2-{2-[(4aR,5R)-4a-Cyclopropyl-1-(4-fluorophenyl)-5-hydroxy-1,4,4a,5,6,7-hexahydrocyclopenta[f]indazol-5-yl]ethyl}-6-methoxybenzamide] returned a Ki of 1.25 nM. In turn, `CC[C@]12Cc3cnn(-c4ccc(F)cc4)c3C=C1CC[C@@]2(O)CC(O)c1c(F)ccnc1Cl` (stereo partly drawn) [Example 74, (4aS,5R)-5-[2-(2-Chloro-4-fluoropyridin-3-yl)-2-hydroxyethyl]-4a-ethyl-1-(4-fluorophenyl)-1,4,4a,5,6,7-hexahydrocyclopenta[f]indazol-5-ol] registered an inhibition constant Ki of 9.35 nM. `CC[C@]12Cc3cnn(-c4ccc(F)cc4)c3C=C1CC[C@@]2(O)CCc1ccccc1C(O)C(N)=O` (stereo partly drawn) [Example 26, 2-(2-{2-[(4aS,5R)-4a-Ethyl-1-(4-fluorophenyl)-5-hydroxy-1,4,4a,5,6,7-hexahydrocyclopenta[f]indazol-5-yl]ethyl}phenyl)-2-hydroxyacetamide] gave an inhibition constant Ki of 3.82 nM. With `CC[C@]12Cc3cnn(-c4ccc(F)cc4)c3C=C1CC[C@@]2(O)CCc1ccc(F)cn1` [Example 19, (4aS,5R)-4a-Ethyl-1-(4-fluorophenyl)-5-[2-(5-fluoropyridin-2-yl)ethyl]-1,4,4a,5,6,7-hexahydrocyclopenta[f]indazol-5-ol], the Ki amounted to 2.52 nM. Against the preceding molecule, the Ki is about 1.5-fold lower.

Consider `NC(=O)c1ccccc1CC[C@]1(O)CCC2=Cc3c(cnn3-c3cccc(F)c3)C[C@@]21C1CC1` [Example 7, 2-{2-[(4aR,5R)-4a-Cyclopropyl-1-(3-fluorophenyl)-5-hydroxy-1,4,4a,5,6,7-hexahydrocyclopenta[f]indazol-5-yl]ethyl}benzamide], for which the affinity, expressed as Ki, was 3.22 nM. As to `NC(=O)CNC(=O)c1cc(F)cnc1CC[C@]1(O)CCC2=Cc3c(cnn3-c3ccc(F)cc3)C[C@@]21C1CC1` [Example 44, N-(2-Amino-2-oxoethyl)-2-{2-[(4aR,5R)-4a-cyclopropyl-1-(4-fluorophenyl)-5-hydroxy-1,4,4a,5,6,7-hexahydrocyclopenta[f]indazol-5-yl]ethyl}-5-fluoropyridine-3-carboxamide], the inhibition constant (Ki) is 4.6 nM. `CS(=O)(=O)c1ccccc1CC[C@]1(O)CCC2=Cc3c(cnn3-c3ccc(F)cc3)C[C@@]21C1CC1` [Example 58, (4aR,5R)-4a-Cyclopropyl-1-(4-fluorophenyl)-5-{2-[2-(methylsulfonyl)phenyl]ethyl}-1,4,4a,5,6,7-hexahydrocyclopenta[f]indazol-5-ol]: the affinity, expressed as Ki, was 0.88 nM. This Ki is about 5.2-fold lower than that of the molecule before.

Broadly, the Ki is the equilibrium dissociation constant of an inhibitor or competing ligand from its target.
